Results as given in patent publication US20160039904A1, “STABILIZED SINGLE HUMAN CD4 DOMAINS AND FUSION PROTEINS” (priority 2013, published 2016).
Values joined by “and” are separate entries in the source; they are usually repeats but may differ in a detail not shown here. Identical values can stand only once. Like-named read-outs stand apart in the source and are kept apart here.

Key:
Format in all cases: cell-based
HIV-1 CH64 = conditions: Table 7; CH64, clade BC, R5
HIV-1 CH70 = conditions: Table 7; CH70, clade BC, R5
HIV-1 CH91 = conditions: Table 7; CH91, clade BC, R5
HIV-1 CH110 = conditions: Table 7; CH110, clade BC, R5
HIV-1 CH117 = conditions: Table 7; CH117, clade BC, R5
HIV-1 CH119 = conditions: Table 7; CH119, clade BC, R5
HIV-1 CNE7 = conditions: Table 7; CNE7, clade BC, R5
HIV-1 CNE16 = conditions: Table 7; CNE16, clade BC, R5
HIV-1 CNE20 = conditions: Table 7; CNE20, clade BC, R5
HIV-1 CNE23 = conditions: Table 7; CNE23, clade BC, R5
HIV-1 CNE30 = conditions: Table 7; CNE30, clade BC, R5
HIV-1 CNE46 = conditions: Table 7; CNE46, clade BC, R5
HIV-1 CNE47 = conditions: Table 7; CNE47, clade BC, R5
HIV-1 CNE49 = conditions: Table 7; CNE49, clade BC, R5
HIV-1 CNE53 = conditions: Table 7; CNE53, clade BC, R5
HIV-1 CNE1 = conditions: Table 7; CNE1, clade B′, X4
HIV-1 CNE4 = conditions: Table 7; CNE4, clade B′, R5
HIV-1 CNE11 = conditions: Table 7; CNE11, clade B′, R5
HIV-1 CNE14 = conditions: Table 7; CNE14, clade B′, R5
HIV-1 CNE57 = conditions: Table 7; CNE57, clade B′, X4
HIV-1 CNE64 = conditions: Table 7; CNE64, clade B′, R5
HIV-1 CNE58 = conditions: Table 7; CNE58, clade C, R5
HIV-1 CNE65 = conditions: Table 7; CNE65, clade C, R5
HIV-1 CNE66 = conditions: Table 7; CNE66, clade C, R5
HIV-1 CNE3 = conditions: Table 7; CNE3, clade AE, R5
HIV-1 CNE5 = conditions: Table 7; CNE5, clade AE, R5
HIV-1 CNE55 = conditions: Table 7; CNE55, clade AE, R5
HIV-1 CNE59 = conditions: Table 7; CNE59, clade AE, R5
HIV-1 CNE107 = conditions: Table 7; CNE107, clade AE, X4
HIV-1 AE20 = conditions: Table 7; AE20, clade AE, R5
HIV-1 YN192.31 = conditions: Table 7; YN192.31, clade AE, R5
[1] = system: 41 HIV-1 isolates predominantly circulating in China; conditions: for IC50 / IC90: Table 7, all viruses, >750 assigned 800, >250 assigned 300, >100 assigned 150, >28 assigned 30
[2] = read-out: IC50, arithmetic mean
[3] = read-out: IC90, arithmetic mean

4Dm2m: bispecific multivalent fusion protein of mD1.22 and m36.4; two SEQ ID NO: 20 and two SEQ ID NO: 21 chains
IC90 (HIV-1 CH64): 1.6 nM | IC50 (HIV-1 CH70): 0.11 nM | IC90 (HIV-1 CH70): 1.2 nM | IC50 (HIV-1 CH91): 0.39 nM | IC90 (HIV-1 CH91): 10 nM | IC50 (HIV-1 CH110): 0.11 nM | IC90 (HIV-1 CH110): 0.83 nM | IC50 (HIV-1 CH117): 0.33 nM | IC90 (HIV-1 CH119): 3.4 nM | IC50 (HIV-1 CNE7): 0.18 nM | IC90 (HIV-1 CNE7): 1.8 nM | IC50 (HIV-1 CNE16): 0.08 nM | IC90 (HIV-1 CNE16): 1.2 nM | IC50 (HIV-1 CNE20): 0.05 nM | IC90 (HIV-1 CNE20): 5.3 nM | IC50 (HIV-1 CNE23): 0.49 nM | IC90 (HIV-1 CNE23): 4.9 nM | IC50 (HIV-1 CNE30): 0.07 nM | IC90 (HIV-1 CNE30): 0.44 nM | IC50 (HIV-1 CNE46): 0.27 nM | IC90 (HIV-1 CNE46): 9.4 nM | IC50 (HIV-1 CNE47): 0.11 nM | IC90 (HIV-1 CNE47): 2.8 nM | IC50 (HIV-1 CNE49): 0.05 nM | IC90 (HIV-1 CNE49): 0.56 nM | IC50 (HIV-1 CNE53): 0.24 nM | IC90 (HIV-1 CNE53): 5.5 nM | IC50 (HIV-1 CNE1): 0.11 nM | IC90 (HIV-1 CNE1): 0.61 nM | IC50 (HIV-1 CNE4): 0.11 nM | IC90 (HIV-1 CNE4): 2.4 nM | IC50 (HIV-1 CNE11): 0.33 nM | IC90 (HIV-1 CNE11): 2.6 nM | IC90 (HIV-1 CNE14): 2.4 nM | IC90 (HIV-1 CNE57): 19 nM | IC50 (HIV-1 CNE64): 0.56 nM | IC90 (HIV-1 CNE58): > 28 nM | IC50 (HIV-1 CNE65): 0.28 nM | IC90 (HIV-1 CNE65): 3.3 nM | IC90 (HIV-1 CNE66): 7.7 nM | IC50 (HIV-1 CNE3): 0.39 nM | IC90 (HIV-1 CNE3): 2.8 nM | IC50 (HIV-1 CNE5): 0.67 nM | IC90 (HIV-1 CNE5): 8.7 nM | IC50 (HIV-1 CNE55): 0.45 nM | IC90 (HIV-1 CNE55): 10 nM | IC90 (HIV-1 CNE59): 2.7 nM | IC50 (HIV-1 CNE107): 0.52 nM | IC50 (HIV-1 AE20): 0.72 nM | IC50 (HIV-1 YN192.31): 0.89 nM | IC50 geometric mean lower than that of C34 ([1]; 41 isolates, P<0.001): ~16 fold | IC50 geometric mean lower than that of CD4-Ig ([1]; 41 isolates, P<0.001): ~200 fold | IC50 geometric mean lower than that of T20 ([1]; 41 isolates, P=0.002): about 50 fold | IC50 [1, 2]: 0.34 nM | IC50 ([1]; read-out: IC50, geometric mean): ~0.2 nM and 0.22 nM | IC90 [1, 3]: 6.2 nM | IC90 ([1]; read-out: IC90, geometric mean): 3.5 nM

enfuvirtide
IC50 (HIV-1 CH64): 3.1 nM | IC90 (HIV-1 CH64): 25 nM | IC50 (HIV-1 CH70): 65 nM | IC90 (HIV-1 CH70): > 750 nM | IC50 (HIV-1 CH91): 8.6 nM | IC90 (HIV-1 CH91): 310 nM | IC50 (HIV-1 CH110): 4.3 nM | IC90 (HIV-1 CH110): 262 nM | IC50 (HIV-1 CH117): 2.3 nM | IC90 (HIV-1 CH117): 34 nM | IC50 (HIV-1 CH119): 2 nM | IC90 (HIV-1 CH119): 25 nM | IC50 (HIV-1 CNE7): 4.3 nM | IC90 (HIV-1 CNE7): 58 nM | IC50 (HIV-1 CNE16): 14 nM | IC90 (HIV-1 CNE16): 169 nM | IC50 (HIV-1 CNE20): 5.5 nM | IC90 (HIV-1 CNE20): 41 nM | IC50 (HIV-1 CNE23): 15 nM | IC90 (HIV-1 CNE23): 228 nM | IC50 (HIV-1 CNE30): 26 nM | IC90 (HIV-1 CNE30): 285 nM | IC50 (HIV-1 CNE46): 26 nM | IC90 (HIV-1 CNE46): 743 nM | IC50 (HIV-1 CNE47): 4.9 nM | IC90 (HIV-1 CNE47): 42 nM | IC50 (HIV-1 CNE49): 9.1 nM | IC90 (HIV-1 CNE49): 236 nM | IC50 (HIV-1 CNE53): 51 nM | IC90 (HIV-1 CNE53): 721 nM | IC50 (HIV-1 CNE1): 1.6 nM | IC90 (HIV-1 CNE1): 17 nM | IC50 (HIV-1 CNE4): 1.7 nM | IC90 (HIV-1 CNE4): 14 nM | IC50 (HIV-1 CNE11): 3.5 nM | IC90 (HIV-1 CNE11): 36 nM | IC50 (HIV-1 CNE14): 9.7 nM | IC90 (HIV-1 CNE14): 305 nM | IC50 (HIV-1 CNE57): 2.5 nM | IC90 (HIV-1 CNE57): 24 nM | IC50 (HIV-1 CNE64): 1.9 nM | IC90 (HIV-1 CNE64): 16 nM | IC50 (HIV-1 CNE58): 54 nM | IC90 (HIV-1 CNE58): 745 nM | IC50 (HIV-1 CNE65): 5.9 nM | IC90 (HIV-1 CNE65): 78 nM | IC50 (HIV-1 CNE66): 129 nM | IC90 (HIV-1 CNE66): 729 nM | IC50 (HIV-1 CNE3): 5.6 nM | IC90 (HIV-1 CNE3): 38 nM | IC50 (HIV-1 CNE5): 2.1 nM | IC90 (HIV-1 CNE5): 19 nM | IC50 (HIV-1 CNE55): 26 nM | IC90 (HIV-1 CNE55): 549 nM | IC50 (HIV-1 CNE59): 1.4 nM | IC90 (HIV-1 CNE59): 17 nM | IC50 (HIV-1 CNE107): 3.8 nM | IC90 (HIV-1 CNE107): 45 nM | IC50 (HIV-1 AE20): 212 nM | IC90 (HIV-1 AE20): 572 nM | IC50 (HIV-1 YN192.31): 42 nM | IC90 (HIV-1 YN192.31): 336 nM | IC50 [1, 2]: 37 nM | IC50 ([1]; read-out: IC50, geometric mean): 11 nM | IC90 [1, 3]: 277 nM | IC90 ([1]; read-out: IC90, geometric mean): 123 nM
